One series relates to MCF-7. Set-up: method as in PMID 26072042. Particulars: MCF-7, CCK-8 assay; cited from earlier work. For orientation: Tetrazolium dyes change colour on reduction, which living cells bring about.
The next series concerns SMMC-7721. The arrangement: method as in PMID 26072042. The following applies: SMMC-7721, CCK-8 assay; cited from earlier work.
The next series deals with HepG2. Set-up: method as in PMID 26072042. The following applies: HepG2, CCK-8 assay; cited from earlier work.
In series [1] the test system is HeLa cells. The series is described as follows: MTT antiproliferative assay, HeLa. The following applies: 72 h; for inhibition at 10 µM / inhibition at 30 µM: read-out: Growth Inhibition (%) ± SEM; for IC50: read-out: Calculated IC50 Value. The class given is cell-based, human. The procedure:
(§1) The isolated phenanthrenes (Compounds 1–9) were tested for their antiproliferative activity against three human tumor cell lines (HeLa and SiHa (cervix adenocarcinoma) and A2780 (ovarian carcinoma)) using the 3-(4,5-dimethylthiazol-2-yl)-2,5-diphenyltetrazolium bromide (MTT) test with cisplatin as a positive control (Table 3). […] Based on the presented results, some structure-activity relationships could be obtained. […] Compounds bearing free hydroxy groups (in case of Compound 3) exerted more pronounced action than its methyl ether (Compound 7) or its oxymethylene derivative (Compound 6). The substantial difference in the activities of the isolated dimers (Compounds 2 and 8) could be attributed to the presence of a methyl group at C-6, which is favored in the monomers, too. Both the other cell lines were substantially less sensitive. […] Similarly, none of the presented agents elicited substantial (>40%) inhibition of the cell cancer proliferation during the applied 72 h of incubation against SiHa cells at 10 μM, and therefore, IC50 values were not determined.
(§2) The antiproliferative properties of the isolated phenanthrenes were determined on a panel of human malignant cell lines isolated from cervical (HeLa and SiHa) and ovarian cancers (A2780) purchased from the European Collection of Cell Cultures (ECCAC, Salisbury, UK). Cells were cultivated in minimal essential medium supplemented with 10% fetal bovine serum, 1% non-essential amino acids and an antibiotic-antimycotic mixture. All media and supplements were obtained from Lonza Group Ltd., (Basel, Switzerland). Near-confluent cancer cells were seeded onto a 96-well microplate (5000 cells/well) and after an overnight standing, medium containing the tested compounds at 10 and 30 µM was added. After incubation for 72 h under cell culture conditions, the living cells were assayed by the addition of 20 µL of 5 mg/mL 3-(4,5-dimethylthiazol-2-yl)-2,5-diphenyltetrazolium bromide (MTT) solution. MTT was converted by intact mitochondrial enzymes and precipitated as purple crystals during a 4 h contact period. The medium was then removed and the formazan was dissolved in 100 µL of DMSO during a 60 min period of shaking at 37 °C. Finally, the reduced MTT was assayed at 545 nm using a microplate reader. […] All in vitro experiments were carried out on two microplates with five parallel wells. Stock solutions of the tested compounds (10 mM) were prepared in DMSO. […] Cisplatin (Ebewe Pharma GmbH, Unterach, Austria) was used as a reference agent.

For a further series, the system named is SiHa cells. Kind of series: MTT antiproliferative assay, SiHa. The class given is cell-based, human. The following applies: 72 h; for inhibition at 10 µM / inhibition at 30 µM: Homo sapiens, read-out: Growth Inhibition (%) ± SEM. The procedure:
as §1, §2

The next series relates to A2780 cells. Kind of series: MTT antiproliferative assay, A2780. The following applies: for inhibition at 10 µM / inhibition at 30 µM: read-out: Growth Inhibition (%) ± SEM; for IC50: read-out: Calculated IC50 Value. The class given is cell-based, human. How it is done: as §1, §2
The test system of series [2] is HeLa cells. Set-up: method as in PMID 23979834. The following applies: read-out: cytotoxic activity; cited from earlier work.
Series [3] deals with MCF-7 cells. Set-up: method as in PMID 23979834. Particulars: read-out: cytotoxic activity; cited from earlier work.
A further series relates to HSV-2. The arrangement: method as in PMID 11463529. Particulars: 6.25 µM; cited from earlier work.
Series [4] concerns HepG2 (liver hepatocellular carcinoma). The arrangement: method as in PMID 26584913. Particulars: cited from earlier work.
In series [5] the test system is HeLa cells. Set-up: method as in PMID 26584913. The following applies: cited from earlier work.
In series [6] the test system is MCF-7 cells. The arrangement: method as in PMID 26584913. Particulars: cited from earlier work.
[7] abbreviates: Homo sapiens, A2780, 10 μM, 72 h, MTT.
The mark [8] stands for this setting: Homo sapiens, A2780, 30 μM, 72 h, MTT.

Molecules are shown by their SMILES. Like-named read-outs stand apart in the source and are kept apart here.

Here are results for 16 compounds from paper PMC6222307, “Phenanthrenes from Juncus Compressus Jacq. with Promising Antiproliferative and Anti-HSV-2 Activities” (Molecules : A Journal of Synthetic Chemistry and Natural …, 2018).

For `C=Cc1cc(O)cc2c1-c1cc(-c3c(O)cc(C=C)c4c3ccc3c(C)c(O)ccc34)c(O)c(C)c1CC2` [effususin B], the IC50 with MCF-7 is 12.5 µM; with SMMC-7721, 13.6 µM; with HepG2, 12.9 µM.
On to `C=Cc1cc(O)cc2c1-c1cc(-c3cc4c(c(C)c3O)CCc3cc(O)cc(C=C)c3-4)c(O)c(C)c1CC2` [Compound 8, effususin A], for which the inhibition at 10 µM in the series with HeLa cells [1] (Homo sapiens, 10 μM, MTT) was less than 10%; with SiHa cells (10 μM, MTT), less than 10%; with A2780 cells (setting [7]) it was less than 10%. In addition, the inhibition at 30 µM in the series with HeLa cells [1] (Homo sapiens, 30 μM, MTT) was 10.4 ± 0.47%; with SiHa cells (30 μM, MTT) it was 14.4 ± 1.48%; in the series on A2780 cells (setting [8]), 72.7 ± 1.82%.
Regarding `C=Cc1c(C)c(O)cc2c1-c1cc(-c3cc4c(c(C)c3O)CCc3cc(O)c(C)c(C=C)c3-4)c(O)c(C)c1CC2` [Compound 2, compressin B], the inhibition at 10 µM in the series with HeLa cells [1] (Homo sapiens, 10 μM, MTT) was 92.03 ± 0.44%; in the series on SiHa cells (10 μM, MTT), less than 10%; in the series on A2780 cells (setting [7]), less than 10%. Moreover, the inhibition at 30 µM with HeLa cells [1] (Homo sapiens, 30 μM, MTT) is 92.38 ± 0.15%; in the series with SiHa cells (30 μM, MTT), 32.8 ± 0.88%; in the series on A2780 cells (setting [8]), 64.8 ± 1.95%. In the series on HeLa cells [1] (Homo sapiens, MTT), the IC50 is 1.86 µM.
For `C=Cc1cc(O)cc2c1-c1ccc(OC)c(C)c1CC2` [Compound 7, 7-hydroxy-1-methyl-2-methoxy-5-vinyl-9,10-dihydrophenanthrene], the inhibition at 10 µM in the series on HeLa cells [1] (Homo sapiens, 10 μM, MTT) was 45.4 ± 1.57%; with SiHa cells (10 μM, MTT), 14.2 ± 0.98%; in the series on A2780 cells (setting [7]), less than 10%. Also, the inhibition at 30 µM was 92.36 ± 0.23% in the series on HeLa cells [1] (Homo sapiens, 30 μM, MTT); 29.5 ± 3.36% in the series with SiHa cells (30 μM, MTT); 63.2 ± 2.54% in the series on A2780 cells (setting [8]). In the series on HeLa cells [1] (Homo sapiens, MTT), the IC50 is 10.7 µM.
For the compound `COc1cccc2c1C(=O)c1c(O)c3c(c(O)c1C2=O)C[C@@](O)(C(=O)CO)C[C@@H]3O[C@H]1C[C@H](N)[C@H](O)[C@H](C)O1` [adriamycin, reference compound], the values for the IC50 in the series on HeLa cells [2] and in the series on MCF-7 cells [3] were 0.539 µM and 0.406 µM, respectively.
In the case of `CC(=O)O[C@H]1C(=O)[C@@]2(C)[C@H]([C@H](OC(=O)c3ccccc3)[C@]3(O)C[C@H](OC(=O)[C@H](O)[C@@H](NC(=O)c4ccccc4)c4ccccc4)C(C)=C1C3(C)C)[C@]1(OC(C)=O)CO[C@@H]1C[C@@H]2O` [paclitaxel, reference compound], the IC50 was 28.6 µM with MCF-7, 0.09 µM in the series on SMMC-7721 and 36.8 µM in the series on HepG2.
For the compound `Cc1c(O)ccc2c1CCc1cc(O)cc(C=O)c1-2` [2,7-dihydroxy-1-methyl-5-aldehyde-9,10-dihydrophenanthrene], the IC50 with HeLa cells [2] is 19.6 µM; in the series on MCF-7 cells [3] it was 9.17 µM.
As to `Nc1nc2c(ncn2COCCO)c(=O)[nH]1` [acyclovir], the “reduction of HSV-2 yield” value in the series with HSV-2 is recorded as 1–5.06 log10.
For the compound `COC(C)c1cc(O)cc2c1-c1ccc(O)c(C)c1CC2` (stereo not drawn) [Compound 4, effususol], the inhibition at 10 µM is less than 10% in the series with HeLa cells [1] (Homo sapiens, 10 μM, MTT); less than 10% in the series on SiHa cells (10 μM, MTT); 18.3 ± 0.42% in the series with A2780 cells (setting [7]). For the same compound, the inhibition at 30 µM in the series on HeLa cells [1] (Homo sapiens, 30 μM, MTT) amounted to 30.4 ± 1.91%; in the series with SiHa cells (30 μM, MTT), 14.2 ± 2.75%; with A2780 cells (setting [8]) it was 72 ± 1.06%.
Take `Cc1c(O)ccc2c1ccc1cc(O)cc(C=O)c12` [Dehydroeffusal]: the IC50 in series [4] was 12.4 µM; in the series with HeLa cells [5], 13.1 µM.
Take `C=Cc1cc(CO)cc2c1-c1ccc(O)c(C)c1CC2` [Compound 6, 2-hydroxy-1-methyl-7-oxymethylene-5-vinyl-9,10-dihydrophenanthrene]: the inhibition at 10 µM was 96.8 ± 0.28% in the series with HeLa cells [1] (Homo sapiens, 10 μM, MTT); less than 10% with SiHa cells (10 μM, MTT); less than 10% in the series on A2780 cells (setting [7]). For the same compound, the inhibition at 30 µM in the series with HeLa cells [1] (Homo sapiens, 30 μM, MTT) is 98.77 ± 0.24%; with SiHa cells (30 μM, MTT) it was 10.2 ± 1.47%; in the series with A2780 cells (setting [8]), less than 10%. Moreover, the IC50 in the series with HeLa cells [1] (Homo sapiens, MTT) was 4.17 µM.
For the compound `N.N.[Cl][Pt][Cl]` [Cisplatin, reference compound], the “Growth Inhibition (%) ± SEM” value is recorded as 42.61 ± 2.33% in the series with HeLa cells [1] (10 μM, MTT); 99.93 ± 0.26% with HeLa cells [1] (30 μM, MTT); 88.64 ± 0.50% in the series with SiHa cells (10 μM, MTT); 90.18 ± 7.78% in the series with SiHa cells (30 μM, MTT); 83.57 ± 1.21% in the series with A2780 cells (A2780, 10 μM, 72 h, MTT); 95.02 ± 0.28% with A2780 cells (A2780, 30 μM, 72 h, MTT). In addition, the IC50 was 12.4 µM in the series with HeLa cells [1] (MTT); 7.84 µM in the series with SiHa cells (MTT, read-out: Calculated IC50 Value); 1.3 µM with A2780 cells (A2780, 72 h, MTT).
For the compound `C=Cc1cc(O)cc2ccc3c(C)c(O)ccc3c12` [Compound 9, dehydroeffusol], in the series on HeLa cells [1] (Homo sapiens), the IC50 is 7.75 µM, the inhibition at 10 µM is 75.2 ± 2.48% and the inhibition at 30 µM worked out at 96.5 ± 0.32%. Moreover, in the series on SiHa cells, the inhibition at 10 µM is less than 10% and the inhibition at 30 µM was found to be 28.7 ± 2.01%. Further, in the series on A2780 cells (Homo sapiens, A2780, 72 h), the inhibition at 10 µM was less than 10% and the inhibition at 30 µM turned out to be 57.3 ± 2.58%.
On to `COC(C)c1cc(O)cc2ccc3c(C)c(O)ccc3c12` (stereo not drawn) [5-(1-methoxyethyl)-1-methyl-phenanthren-2,7-diol], for which, in the series on MCF-7 cells [6], the IC50 is 10.9 µM.
Turning to `C=Cc1cc(O)cc2c1-c1ccc(O)c(C)c1CC2` [Compound 3, effusol], the inhibition at 10 µM was 96.37 ± 0.28% in the series on HeLa cells [1] (Homo sapiens, 10 μM, MTT); less than 10% in the series with SiHa cells (10 μM, MTT); less than 10% in the series on A2780 cells (setting [7]). The inhibition at 30 µM in the series with HeLa cells [1] (Homo sapiens, 30 μM, MTT) was 97.77 ± 0.27%; in the series with SiHa cells (30 μM, MTT), less than 10%; in the series with A2780 cells (setting [8]), 50.5 ± 1.59%. The IC50 with HeLa cells [1] (Homo sapiens, MTT) was 3.68 µM.
Turning to `C=Cc1c(C)c(O)cc2c1-c1ccc(OC)c(C)c1CC2` [Compound 1, compressin A], the inhibition at 10 µM with HeLa cells [1] (Homo sapiens, 10 μM, MTT) was 41.7 ± 1.1%; in the series with SiHa cells (10 μM, MTT) it was less than 10%; in the series with A2780 cells (setting [7]), 47.6 ± 1.58%. The inhibition at 30 µM came out at 93.73 ± 0.36% in the series with HeLa cells [1] (Homo sapiens, 30 μM, MTT); 38.6 ± 0.78% with SiHa cells (30 μM, MTT); 73 ± 0.47% in the series with A2780 cells (setting [8]). Further, the IC50 was 11.3 µM in the series with HeLa cells [1] (Homo sapiens, MTT) and 13.2 µM in the series on A2780 cells (Homo sapiens, A2780, 72 h, MTT).

For orientation: inhibition means the relative decrease from the control value, in per cent.
